Values of other authors as cited in patent US20020128313A1, “Method for improved pregnancy management and related composition” (priority 2000, published 2002).

System: sows
[1] = 5 mg in extended boar sperm (Gil et al., 1998)

## CCCCC[C@H](O)/C=C/[C@@H]1[C@@H](C/C=C\CCCC(=O)O)[C@@H](O)C[C@H]1O [PGF2α, Prostaglandin F2α]
[1]
  Likelihood of a sow to become pregnant: increased the likelihood of a sow to become pregnant
  Number of piglets born alive: increased number of piglets born alive
Pena et al., 1998
  Effect on seasonal infertility in sows: helped alleviate the effect of seasonal infertility
